# Assay results taken from US6387406B1, “Copolymer compositions for oral delivery” (Supratek Pharma Inc., priority 1992, dated 2002).
# Read-outs that look alike come from different tables or passages of the source.
# Columns and labels:
# [1] = system: SKVLB cell line (SK-resistant cells); assay: XTT cytotoxicity on SK-resistant cells; assay type: cell-based, human; details: for IC50: Homo sapiens
# DBA/2 mice [2] = system: DBA/2 mice
# [3] = system: neuroleptic effect as monitored behaviorally; assay: Minimum neuroleptic dose (MND); assay type: in vivo; details: control preparation
# Protocol: The minimum neuroleptic dose (MND) was determined for each preparation. The minimum neuroleptic dose is defined as the minimum dose that caused a neuroleptic effect as monitored behaviorally. See, Kabanov et al., FEBS Lett. 258: 343-345, 1989. The MND for the copolymer-containing preparation was 0.02 mg/kg, while that of the control preparation was 2 mg/kg. The ratio of LD95/MND was 50 for the copolymer preparation and 5 for the control preparation.
# DBA/2 mice [4] = details: ±S.D.
# [5] = system: SKOV3 line of transformed cells (SK cells); assay: Cytotoxicity on SK cells; assay type: cell-based, human; details: free drug
# glucose level in plasma = assay: Insulin-induced hypoglycemia, s.c. or p.o.; assay type: in vivo, Balb/c mice
# Protocol: Hypoglycemia induced by high doses of insulin in mice was used as biological response criteria. The drug activity was evaluated by analyzing the glucose level in plasma versus time following drug administration. Isotonic solutions of free insulin (Ins) or insulin formulated with POE-POP block copolymer (“SP1-Ins”) were given to Balb/c mice at the same doses either s.c. or p.o.
# Female six-week-old Balb/c mice (six animals per time point) were administered s.c. or p.o. with sterile 100 μl per 20 g of body weight (5 ml/kg) of Insulin or SP1-Insulin solutions, and the same volumes of isotonic solution were given to the control group of animals. Both Insulin and SP1-Insulin injections contained 0.02 mg/ml of insulin with activity of 27.3 μ/mg.
# The animals were sacrificed after various time intervals (0.5-6 hr; post-administration), plasma samples were collected, and glucose levels were analyzed by standard glucosoxidase-peroxidase method. The statistical significance was analyzed by the multiple range text of Duncan-Kramer.
# BALB/c male mice = details: mouse, in vivo, ip
# [6] = control preparation, solution in RPMI 1640
# [7] = Example 10: 10% of LD95 i.p., stearoylated insulin-targeted micelles vs free drug
compound,measurement,setting,value
"COc1cccc2c1C(=O)c1c(O)c3c(c(O)c1C2=O)C[C@@](O)(C(=O)CO)C[C@@H]3O[C@H]1C[C@H](N)[C@H](O)[C@H](C)O1 [Free doxorubicin, doxorubicin]",IC50,[1],60 µg/mL
CCN1CCCC1CNC(=O)c1cc(S(N)(=O)=O)ccc1OC (stereo not shown) [Sulpiride],LD95,DBA/2 mice [2]; [6],100 mg/kg body weight
CN1CCN(CCCN2c3ccccc3Sc3ccc(C(F)(F)F)cc32)CC1 [Trifluorperazine],minimum neuroleptic dose (MND),[3],2 mg/kg
same,ratio of LD95/MND,[3],5
same,LD95,DBA/2 mice [2]; [6],10 mg/kg body weight
O=C(CCCN1CCC(O)(c2ccc(Cl)cc2)CC1)c1ccc(F)cc1 [haloperidol],LD95,"DBA/2 mice [2]; i.p., without the Pluronic vehicle",75 mg/kg
same,Horizontal mobility,"DBA/2 mice [4]; Example 7: 10% of LD95 i.p., antibody-targeted micelles vs free drug",204.6 ± 24%
same,Grooming,DBA/2 mice [4]; [7],1656.4 ± 6.5%
same,Horizontal mobility,DBA/2 mice [4]; [7],180.1 ± 26%
CN(Cc1cnc2nc(N)nc(N)c2n1)c1ccc(C(=O)N[C@@H](CCC(=O)O)C(=O)O)cc1 [methotrexate],IC50,"[1]; free drug, read-out: IC50 against SK-resistant cells",1.34 µg/mL
CO[C@@]12[C@H](COC(N)=O)C3=C(C(=O)C(C)=C(N)C3=O)N1C[C@@H]1N[C@@H]12 [mitomycin C],IC50 against SK-resistant cells,[1]; free drug,1.120 µg/mL
same,IC50 against SK cells,[5],0.320 µg/mL
Insulin,changes in plasma glucose level,"glucose level in plasma; p.o., in words",only minor changes
same,time to return to the normal glucose level,glucose level in plasma; s.c.,about 6 hours
same,glucose level in plasma,"glucose level in plasma; s.c., 3 hours after administration",about 15 % of the normal level
Pluronic P85,MTD,BALB/c male mice,200 mg/kg
